Measured values as given in BindingDB's records for PubMed 8035312 (University of California, 1994).
“And” between values parts separate entries of the source, which are not always exact repeats. Equal entries are not always repeated.

What follows are compounds tested against Nicotinic acetylcholine receptor (Rattus leucopus, UniProt Q62594).
Sequence of Nicotinic acetylcholine receptor (Q62594 whole entry): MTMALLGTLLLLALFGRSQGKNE

Row | Compound | Ki
1 | CN1[C@@H](C[C@@H](O)c2ccccc2)CCC[C@H]1CC(=O)c1ccccc1 [Lobeline] | 15.5 nM
2 | CNC(=O)OCC[N+](C)(C)C [CAS_14721-69-8] | 5.2 nM
3 | O=C1N(Cc2ccccc2)C2C[S+]3CCCC3C2N1Cc1ccccc1 (stereo unspecified) [NSC_441310] | > 10000 nM
4 | C=C(C=O)C[C@H]1C[C@H](O)[C@]2(C)O[C@@H]3C[C@@H]4O[C@@H]5C[C@]6(C)O[C@]7(C)CC[C@@H]8O[C@@H]9C[C@]%10(C)O[C@@H]%11C(C)=CC(=O)O[C@H]%11C[C@H]%10O[C@H]9C[C@@H](C)[C@H]8O[C@H]7C[C@H]6O[C@@]5(C)C/C=C\[C@H]4O[C@H]3C[C@H]2O1 | > 10000 nM and 1000 nM
5 | C[N+](C)(C)CCCCCC[N+](C)(C)C [Hexamethoniumdibromide] | > 10000 nM
6 | COc1cc2c3cc1Oc1cc(ccc1O)C[C@@H]1c4c(cc(OC)c(O)c4Oc4ccc(cc4)C[C@@H]3N(C)CC2)CC[N+]1(C)C [Tubocurarine,d] | 1000 nM and 282 nM
